Measured values reported in patent US10221173B2, “Chemical compounds” (AstraZeneca AB, priority 2017, dated 2019).
In brackets after ≈: the same amount, converted by molar mass.

Columns and labels:
[1] = biological target: recombinant human Estrogen Receptor alpha ligand binding domain (ER alpha-LBD (GST)) (Homo sapiens (Human), UniProt P03372); experiment: ERα binding assay (LanthaScreen TR-FRET competition)
[2] = biological target: T1, Estrogen Receptor (ERα) in MCF-7 cells (Homo sapiens (Human), UniProt P03372); experiment: MCF-7 ER down-regulation assay (immuno-fluorescence); format: cell-based; details: for % downregulation (in brackets): maximum downregulation
Description: The ability of compounds to down-regulate Estrogen Receptor (ER) numbers was assessed in a cell based immuno-fluorescence assay using the MCF-7 human ductal carcinoma breast cell line. MCF-7 cells were revived directly from a cryovial (approx 5×10^6 cells) in Assay Medium (phenol red free Dulbecco's Modified Eagle's medium (DMEM); Sigma D5921) containing 2 mM L-Glutamine and 5% (v/v) Charcoal/Dextran treated foetal calf serum. Cells were syringed once using a sterile 18G×1.5 inch (1.2×40 mm) broad gauge needle and cell density was measured using a Coulter Counter (Beckman). […] Following cell seeding, plates were incubated overnight at 37° C., 5% CO2 (Liconic carousel incubator). Test data was generated using the LabCyte Echomodel 555 compound reformatter which is part of an automated workcell (Integrated Echo 2 workcell). Compound stock solutions (10 mM) of the test compounds were used to generate a 384 well compound dosing plate (Labcyte P-05525-CV1). […] 40 μL of DMSO added to wells in row P on the source plate allowed for DMSO normalisation across the dose range. To dose the control wells 40 μL of DMSO was added to row O1 and 40 μL of 100 μM fulvestrant in DMSO was added to row O3 on the compound source plate.
The Echo uses acoustic technology to perform direct microplate-to-microplate transfers of DMSO compound solutions to assay plates. The system can be programmed to transfer volumes as low as 2.5 nL in multiple increments between microplates and in so doing generates a serial dilution of compound in the assay plate which is then back-filled to normalise the DMSO concentration across the dilution range. […] The fixing method described above was carried out on the Integrated Echo 2 workcell. Immunostaining was performed using an automated AutoElisa workcell. The PBS/Proclin was aspirated from all wells and the cells permeabilised with 40 μL PBS containing 0.5% Tween™ 20 (v/v) for 1 hour at room temperature. The plates were washed three times in 250 μL of PBS/0.05% (v/v) Tween 20 with Proclin (PBST with a Biocide preservative) and then 20 μL of ERα (SP1) Rabbit monoclonal antibody (Thermofisher) 1:1000 in PBS/Tween™/3% (w/v) Bovine Serum Albumin was added. The plates were incubated overnight at 4° C. (Liconic carousel incubator) and then washed three times in 250 μL of PBS/0.05% (v/v) Tween™ 20 with Proclin (PBST). The plates were then incubated with 20 μL/well of a goat anti-rabbit IgG AlexaFluor 594 or goat anti-rabbit AlexaFluor 488 antibody (Molecular Probes) with Hoechst at 1:5000 in PBS/Tween™/3% (w/v) Bovine Serum Albumin for 1 hour at room temperature. The plates were then washed three times in 250 μL of PBS/0.05% (v/v) Tween™ 20 with Proclin (PBST with a Biocide preservative). 20 μL of PBS was added to each well and the plates covered with a black plate seal and stored at 4° C. before being read. […] The mean total intensity was normalized for cell number giving the total intensity per cell. The data was exported into a suitable software package (such as Origin) to perform curve fitting analysis.

[3] = biological target: T1, Estrogen Receptor (ERα) in MCF-7 cells; experiment: Western blotting assay, ER down-regulation in MCF-7; format: cell-based; details: MCF-7, 100 nM compound, 48 h, vs 100 nM fulvestrant
[4] = Log D (shake flask, 1-octanol/aqueous buffer); format: physicochemical; details: 1-octanol/aqueous buffer, pH 7.4, pH 7.4
[5] = Thermodynamic solubility (shake-flask); format: physicochemical; details: aqueous phosphate buffer, 25 °C, pH 7.4, aqueous buffer, thermodynamic from solid, phosphate buffer pH 7.4, 24 hours
[6] = Human plasma protein binding (equilibrium dialysis); format: in vitro ADME
hERG potassium channel = hERG potassium channel (Homo sapiens (Human), UniProt Q12809)
Sequence of hERG potassium channel (Q12809 whole entry): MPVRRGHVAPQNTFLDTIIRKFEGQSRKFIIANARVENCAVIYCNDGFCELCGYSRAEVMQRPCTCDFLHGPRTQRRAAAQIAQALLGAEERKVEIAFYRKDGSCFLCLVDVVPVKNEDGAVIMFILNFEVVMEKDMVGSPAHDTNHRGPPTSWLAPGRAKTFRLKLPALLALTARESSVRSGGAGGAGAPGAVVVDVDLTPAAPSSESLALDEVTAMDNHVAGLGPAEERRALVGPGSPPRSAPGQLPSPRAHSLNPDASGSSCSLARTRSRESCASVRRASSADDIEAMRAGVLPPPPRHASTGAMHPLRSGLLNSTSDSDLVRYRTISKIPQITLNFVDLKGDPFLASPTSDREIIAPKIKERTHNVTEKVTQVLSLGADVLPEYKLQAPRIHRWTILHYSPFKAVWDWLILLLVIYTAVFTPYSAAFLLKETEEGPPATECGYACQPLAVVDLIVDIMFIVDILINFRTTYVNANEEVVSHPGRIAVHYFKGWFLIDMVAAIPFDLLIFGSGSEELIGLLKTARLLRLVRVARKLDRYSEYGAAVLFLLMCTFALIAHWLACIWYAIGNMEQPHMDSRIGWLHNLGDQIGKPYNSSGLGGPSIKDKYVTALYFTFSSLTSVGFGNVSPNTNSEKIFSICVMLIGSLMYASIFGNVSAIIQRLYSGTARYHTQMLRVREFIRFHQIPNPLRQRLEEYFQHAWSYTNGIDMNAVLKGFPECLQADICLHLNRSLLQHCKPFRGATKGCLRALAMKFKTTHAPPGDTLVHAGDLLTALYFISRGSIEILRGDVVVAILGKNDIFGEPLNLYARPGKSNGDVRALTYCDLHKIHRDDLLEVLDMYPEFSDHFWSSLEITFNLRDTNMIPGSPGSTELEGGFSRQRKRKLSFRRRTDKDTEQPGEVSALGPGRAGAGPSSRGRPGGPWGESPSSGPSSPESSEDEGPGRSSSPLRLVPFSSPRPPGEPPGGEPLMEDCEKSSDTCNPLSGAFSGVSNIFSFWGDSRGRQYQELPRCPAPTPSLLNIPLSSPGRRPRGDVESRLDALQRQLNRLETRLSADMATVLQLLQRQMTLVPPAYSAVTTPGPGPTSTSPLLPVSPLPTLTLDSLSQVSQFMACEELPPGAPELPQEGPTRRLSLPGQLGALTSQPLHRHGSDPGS

T1 sequence (P03372 whole entry): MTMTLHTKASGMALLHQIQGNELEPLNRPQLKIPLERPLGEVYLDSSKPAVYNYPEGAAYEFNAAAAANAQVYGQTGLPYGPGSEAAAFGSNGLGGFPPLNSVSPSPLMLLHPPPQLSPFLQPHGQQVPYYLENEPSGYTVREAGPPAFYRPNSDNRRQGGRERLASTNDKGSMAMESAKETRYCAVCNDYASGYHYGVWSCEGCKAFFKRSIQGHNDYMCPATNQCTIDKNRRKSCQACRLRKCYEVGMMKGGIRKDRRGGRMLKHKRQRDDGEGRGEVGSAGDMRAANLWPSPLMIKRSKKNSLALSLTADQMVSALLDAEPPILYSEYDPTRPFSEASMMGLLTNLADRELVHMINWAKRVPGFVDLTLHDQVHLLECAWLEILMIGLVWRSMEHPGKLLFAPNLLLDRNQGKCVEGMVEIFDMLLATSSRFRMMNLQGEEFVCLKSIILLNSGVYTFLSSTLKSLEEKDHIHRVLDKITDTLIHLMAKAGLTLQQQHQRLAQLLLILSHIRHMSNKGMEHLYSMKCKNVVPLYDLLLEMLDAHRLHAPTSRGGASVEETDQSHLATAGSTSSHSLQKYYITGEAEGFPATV
Sequence of recombinant human Estrogen Receptor alpha ligand binding domain (ER alpha-LBD (GST)) (P03372 307-554): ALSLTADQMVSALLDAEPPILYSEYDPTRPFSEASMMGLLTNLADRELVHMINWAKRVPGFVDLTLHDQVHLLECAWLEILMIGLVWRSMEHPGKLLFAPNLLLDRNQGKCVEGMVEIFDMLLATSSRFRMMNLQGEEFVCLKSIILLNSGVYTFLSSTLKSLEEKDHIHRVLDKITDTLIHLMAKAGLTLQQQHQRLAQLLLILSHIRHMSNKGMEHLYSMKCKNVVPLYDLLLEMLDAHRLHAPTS

With `Cc1c(OCCNCCCF)ccc(F)c1[C@@H]1c2[nH]c3ccc(F)cc3c2C[C@@H](C)N1C[C@H](C)C(=O)O` [Example 57, (S)-3-((1R,3R)-6-fluoro-1-(6-fluoro-3-(2-((3-fluoropropyl)amino)ethoxy)-2-methylphenyl)-3-methyl-1,3,4,9-tetrahydro-2H-pyrido[3,4-b]indol-2-yl)-2-methylpropanoic acid] the IC50 [1] was 2.6 nM, the IC50 [2] was 0.34 nM and the “MCF7 Western % ER deg vs Fv” value [3] was 93%.

`C[C@@H]1Cc2c([nH]c3ccccc23)[C@@H](c2nccc(NCCNCCCF)c2F)N1CC(F)(F)F` [Example 94, N1-(3-fluoro-2-((1S,3R)-3-methyl-2-(2,2,2-trifluoroethyl)-2,3,4,9-tetrahydro-1H-pyrido[3,4-b]indol-1-yl)pyridin-4-yl)-N2-(3-fluoropropyl)ethane-1,2-diamine] showed an IC50 [1] of 3.6 nM, a logD [4] of 2.4 and a solubility at 24 h [5] of 698 µM (≈ 336 µg/mL). The “Human plasma protein binding (% free)” value [6] was 7 % free, the IC50 [2] was 9.2 nM and the IC50 (hERG potassium channel) was 9900 nM.

`Cc1c(NCCNCCCF)ccnc1[C@@H]1c2[nH]c3ccccc3c2C[C@@H](C)N1CC(F)(F)F` [Example 95, N1-(3-fluoropropyl)-N2-(3-methyl-2-((1S,3R)-3-methyl-2-(2,2,2-trifluoroethyl)-2,3,4,9-tetrahydro-1H-pyrido[3,4-b]indol-1-yl)pyridin-4-yl)ethane-1,2-diamine] gave an IC50 [1] of 5.6 nM, a logD [4] of 2.5 and a solubility at 24 h [5] of 869 µM (≈ 415 µg/mL). For the same molecule, the “Human plasma protein binding (% free)” value [6] was 4.6 % free, the IC50 [2] was 3.3 nM and the IC50 (hERG potassium channel) was 7200 nM.

With `C[C@@H]1Cc2c([nH]c3ccccc23)[C@@H](c2ccnc(OCCNCCCF)c2)N1CC(F)(F)F` [Example 102, 3-fluoro-N-(2-((4-((1R,3R)-3-methyl-2-(2,2,2-trifluoroethyl)-2,3,4,9-tetrahydro-1H-pyrido[3,4-b]indol-1-yl)pyridin-2-yl)oxy)ethyl)propan-1-amine] the IC50 [1] was 2 nM, the logD [4] was 3.8 and the solubility at 24 h [5] was 251 µM (≈ 117 µg/mL). For the same molecule, the “Human plasma protein binding (% free)” value [6] was 1.4 % free, the IC50 [2] was 2.9 nM and the IC50 (hERG potassium channel) was 7200 nM.

For `Cc1c([C@@H]2c3[nH]c4ccccc4c3C[C@@H](C)N2CC(F)(F)CO)ccnc1OCCNCCCF` [Example 103, 2,2-difluoro-3-((1R,3R)-1-(2-(2-((3-fluoropropyl)amino)ethoxy)-3-methylpyridin-4-yl)-3-methyl-1,3,4,9-tetrahydro-2H-pyrido[3,4-b]indol-2-yl)propan-1-ol], the IC50 [1] was 0.56 nM, the logD [4] was 2.9 and the solubility at 24 h [5] was 660 µM (≈ 324 µg/mL). For the same molecule, the “Human plasma protein binding (% free)” value [6] was 2 % free, the IC50 [2] was 0.084 nM and the IC50 (hERG potassium channel) was 4300 nM.

In the case of `Cc1ccc(OCCNCCCF)nc1[C@@H]1c2[nH]c3ccccc3c2C[C@@H](C)N1CC(F)(F)F` [Example 105, 3-fluoro-N-(2-((5-methyl-6-((1S,3R)-3-methyl-2-(2,2,2-trifluoroethyl)-2,3,4,9-tetrahydro-1H-pyrido[3,4-b]indol-1-yl)pyridin-2-yl)oxy)ethyl)propan-1-amine], the IC50 [1] is reported as 42 nM, the logD [4] is reported as 3.4 and the solubility at 24 h [5] is reported as 136 µM (≈ 65.1 µg/mL). The “Human plasma protein binding (% free)” value [6] was 1 % free, the IC50 [2] was 39 nM and the IC50 (hERG potassium channel) was 3500 nM.

For `C[C@@H]1Cc2c([nH]c3ccccc23)[C@@H](c2c(F)cnc(OCCNCCCF)c2F)N1CC1(F)CC1` [Example 108, N-(2-((3,5-difluoro-4-((1R,3R)-2-((1-fluorocyclopropyl)methyl)-3-methyl-2,3,4,9-tetrahydro-1H-pyrido[3,4-b]indol-1-yl)pyridin-2-yl)oxy)ethyl)-3-fluoropropan-1-amine], the IC50 [1] was 1 nM, the logD [4] was 3.2 and the solubility at 24 h [5] was 375 µM (≈ 184 µg/mL). The “Human plasma protein binding (% free)” value [6] was 2.3 % free, the IC50 [2] was 0.3 nM and the IC50 (hERG potassium channel) was 6000 nM.

`COc1nnc(OCCNCCCF)cc1[C@@H]1c2[nH]c3ccccc3c2C[C@@H](C)N1CC(F)(F)F` [Example 112, 3-fluoro-N-(2-((6-methoxy-5-((1R,3R)-3-methyl-2-(2,2,2-trifluoroethyl)-2,3,4,9-tetrahydro-1H-pyrido[3,4-b]indol-1-yl)pyridazin-3-yl)oxy)ethyl)propan-1-amine] showed an IC50 [1] of 2 nM, a logD [4] of 3.2 and a solubility at 24 h [5] of 92 µM (≈ 45.6 µg/mL). For the same molecule, the “Human plasma protein binding (% free)” value [6] was 1.5 % free, the IC50 [2] was 0.95 nM and the IC50 (hERG potassium channel) was 19000 nM.

For `Cc1c(OCCNCCCF)ncnc1[C@@H]1c2[nH]c3ccccc3c2C[C@@H](C)N1CC(F)(F)F` [Example 114, 3-fluoro-N-(2-((5-methyl-6-((1S,3R)-3-methyl-2-(2,2,2-trifluoroethyl)-2,3,4,9-tetrahydro-1H-pyrido[3,4-b]indol-1-yl)pyrimidin-4-yl)oxy)ethyl)propan-1-amine], the IC50 [1] was 0.74 nM, the logD [4] was 3.3 and the solubility at 24 h [5] was 276 µM (≈ 132 µg/mL). For the same molecule, the “Human plasma protein binding (% free)” value [6] was 1.7 % free, the IC50 [2] was 0.2 nM and the IC50 (hERG potassium channel) was 5900 nM.

Work on `C[C@@H]1Cc2c([nH]c3ccccc23)[C@@H](c2c(Cl)ccc(OCCNCCCF)c2Cl)N1C[C@H](C)C(=O)O` [Example 128, (S)-3-((1R,3R)-1-(2,6-dichloro-3-(2-((3-fluoropropyl)amino)ethoxy)phenyl)-3-methyl-1,3,4,9-tetrahydro-2H-pyrido[3,4-b]indol-2-yl)-2-methylpropanoic acid] yielded an IC50 [1] of 3.4 nM, a logD [4] of 1 and a solubility at 24 h [5] of 973 µM (≈ 522 µg/mL). For the same molecule, the “Human plasma protein binding (% free)” value [6] was 15 % free, the IC50 [2] was 1.1 nM and the IC50 (hERG potassium channel) was > 40000 nM.

For `Cc1c([C@@H]2c3[nH]c4ccccc4c3C[C@@H](C)N2C[C@H](C)C(=O)O)ccnc1OCCNCCCF` [Example 132, (S)-3-((1R,3R)-1-(2-(2-((3-fluoropropyl)amino)ethoxy)-3-methylpyridin-4-yl)-3-methyl-1,3,4,9-tetrahydro-2H-pyrido[3,4-b]indol-2-yl)-2-methylpropanoic acid], the IC50 [1] was 2 nM, the logD [4] was 0.6 and the solubility at 24 h [5] was 914 µM (≈ 441 µg/mL). The “Human plasma protein binding (% free)” value [6] was 34 % free, the IC50 [2] was 0.98 nM and the IC50 (hERG potassium channel) was > 40000 nM.

For `Cc1c(OCCNCCCF)ccc(F)c1[C@@H]1c2[nH]c3ccccc3c2C[C@@H](C(F)(F)F)N1C[C@H](C)C(=O)O` [Example 140, (S)-3-((1R,3S)-1-(6-fluoro-3-(2-((3-fluoropropyl)amino)ethoxy)-2-methylphenyl)-3-(trifluoromethyl)-1,3,4,9-tetrahydro-2H-pyrido[3,4-b]indol-2-yl)-2-methylpropanoic acid], the IC50 [1] was 1.4 nM, the IC50 [2] was 1 nM and the “MCF7 Western % ER deg vs Fv” value [3] was 84%.

In the case of `C[C@@H](CN1[C@H](c2c(F)ccc(OCCNCCCF)c2Cl)c2[nH]c3ccccc3c2C[C@H]1C(F)(F)F)C(=O)O` [Example 141], the IC50 [1] is reported as 2.8 nM, the IC50 [2] is reported as 0.98 nM and the “MCF7 Western % ER deg vs Fv” value [3] is reported as 79%.

In the case of `Cc1c(OCCN(C)CCCF)ncc(F)c1[C@@H]1c2[nH]c3ccccc3c2C[C@@H](C)N1C[C@H](C)C(=O)O` [Example 145, (S)-3-((1R,3R)-1-(5-fluoro-2-(2-((3-fluoropropyl)(methyl)amino)ethoxy)-3-methylpyridin-4-yl)-3-methyl-1,3,4,9-tetrahydro-2H-pyrido[3,4-b]indol-2-yl)-2-methylpropanoic acid], the “MCF7 Western % ER deg vs Fv” value [3] is reported as 94%.

Molecule `Cc1c(OCCN(C)CCCF)ccc(F)c1[C@@H]1c2[nH]c3ccccc3c2C[C@@H](C(F)(F)F)N1C[C@H](C)C(=O)O` [Example 149, (S)-3-((1R,3S)-1-(6-fluoro-3-(2-((3-fluoropropyl)(methyl)amino)ethoxy)-2-methylphenyl)-3-(trifluoromethyl)-1,3,4,9-tetrahydro-2H-pyrido[3,4-b]indol-2-yl)-2-methylpropanoic acid] has an IC50 [1] of 1.5 nM, a logD [4] of 2.2 and a solubility at 24 h [5] of 523 µM (≈ 297 µg/mL). The “Human plasma protein binding (% free)” value [6] was 5.3 % free, the IC50 [2] was 0.85 nM and the “% downregulation (in brackets)” value [2] was 86%. For the same molecule, the IC50 (hERG potassium channel) was > 40000 nM.

For `Cc1c(OCCN(C)CCCF)ncc(F)c1[C@@H]1c2[nH]c3ccccc3c2C[C@@H](C)N1C[C@@H](C)C(=O)O` [Example 152, (R)-3-((1R,3R)-1-(5-fluoro-2-(2-((3-fluoropropyl)(methyl)amino)ethoxy)-3-methylpyridin-4-yl)-3-methyl-1,3,4,9-tetrahydro-2H-pyrido[3,4-b]indol-2-yl)-2-methylpropanoic acid], the “MCF7 Western % ER deg vs Fv” value [3] was 93%.

`C[C@@H]1Cc2c([nH]c3ccccc23)[C@@H](c2c(F)ccc(OCCN(C)CCCF)c2F)N1CC1(F)COC1` [Example 154, N-(2-(2,4-difluoro-3-((1R,3R)-2-((3-fluorooxetan-3-yl)methyl)-3-methyl-2,3,4,9-tetrahydro-1H-pyrido[3,4-b]indol-1-yl)phenoxy)ethyl)-3-fluoro-N-methylpropan-1-amine] gave an IC50 [1] of 1.2 nM, a logD [4] of 3.5 and a solubility at 24 h [5] of 49 µM (≈ 25.5 µg/mL). The “Human plasma protein binding (% free)” value [6] was 2.7 % free, the IC50 [2] was 0.89 nM and the “% downregulation (in brackets)” value [2] was 79%. It also gave an IC50 (hERG potassium channel) of 4300 nM.

In the case of `Cc1c([C@@H]2c3[nH]c4ccccc4c3C[C@@H](C)N2C[C@@H](C)C(=O)O)ccnc1OCCN(C)CCCF` [Example 161, (R)-3-((1R,3R)-1-(2-(2-((3-fluoropropyl)(methyl)amino)ethoxy)-3-methylpyridin-4-yl)-3-methyl-1,3,4,9-tetrahydro-2H-pyrido[3,4-b]indol-2-yl)-2-methylpropanoic acid], the IC50 [1] is reported as 1.7 nM, the logD [4] is reported as 1.3 and the solubility at 24 h [5] is reported as > 1000 µM. The “Human plasma protein binding (% free)” value [6] was 6.3 % free, the IC50 [2] was 1.1 nM and the IC50 (hERG potassium channel) was > 40000 nM.
